Assay results: ChEMBL document CHEMBL4616721, “Nitrogen-Walk Approach to Explore Bioisosteric Replacements in a Series of Potent A2B Adenosine Receptor Antagonists” (J Med Chem, 2020)
pIC50, pKi: −log10 of the molar value.

Assays:
[1] = target: T1, Adenosine receptor A1 (Homo sapiens) (UniProt P30542); assay: Displacement [3H]DPCPX from human adenosine A1 receptor expressed in CHO cell membranes at 1 uM incubated for 60 mins by scintillation counting method relative to control
T1 sequence (whole entry): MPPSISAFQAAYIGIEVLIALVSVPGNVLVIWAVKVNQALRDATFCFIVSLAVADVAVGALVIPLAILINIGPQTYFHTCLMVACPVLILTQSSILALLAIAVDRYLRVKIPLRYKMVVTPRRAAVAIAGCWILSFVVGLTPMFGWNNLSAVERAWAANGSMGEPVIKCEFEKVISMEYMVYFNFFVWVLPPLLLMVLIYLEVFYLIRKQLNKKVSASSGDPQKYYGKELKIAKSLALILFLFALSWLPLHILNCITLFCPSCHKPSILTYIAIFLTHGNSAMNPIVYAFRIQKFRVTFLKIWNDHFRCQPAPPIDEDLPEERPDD

[2] = target: T2, Adenosine receptor A3 (Homo sapiens) (UniProt P0DMS8); assay: Displacement [3H]NECA from adenosine A3 receptor in human HeLa cell membranes at 1 uM incubated for 180 mins by scintillation counting method relative to control
T2 sequence (whole entry): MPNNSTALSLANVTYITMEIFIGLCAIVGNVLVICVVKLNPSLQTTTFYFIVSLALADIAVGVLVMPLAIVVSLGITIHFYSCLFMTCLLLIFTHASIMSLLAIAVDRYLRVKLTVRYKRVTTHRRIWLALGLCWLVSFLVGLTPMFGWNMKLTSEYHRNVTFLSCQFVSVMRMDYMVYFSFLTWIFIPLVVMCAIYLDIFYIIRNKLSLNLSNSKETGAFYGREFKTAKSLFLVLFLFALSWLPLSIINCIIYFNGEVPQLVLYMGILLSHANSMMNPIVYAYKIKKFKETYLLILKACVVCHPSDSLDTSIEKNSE

[3] = target: T3, Adenosine receptor A2a (Homo sapiens, UniProt P29274); assay: Displacement [3H]ZM241385 from adenosine A2A receptor in human HeLa cell membranes at 1 uM incubated for 30 mins by scintillation counting method relative to control
T3 sequence (P29274 whole entry): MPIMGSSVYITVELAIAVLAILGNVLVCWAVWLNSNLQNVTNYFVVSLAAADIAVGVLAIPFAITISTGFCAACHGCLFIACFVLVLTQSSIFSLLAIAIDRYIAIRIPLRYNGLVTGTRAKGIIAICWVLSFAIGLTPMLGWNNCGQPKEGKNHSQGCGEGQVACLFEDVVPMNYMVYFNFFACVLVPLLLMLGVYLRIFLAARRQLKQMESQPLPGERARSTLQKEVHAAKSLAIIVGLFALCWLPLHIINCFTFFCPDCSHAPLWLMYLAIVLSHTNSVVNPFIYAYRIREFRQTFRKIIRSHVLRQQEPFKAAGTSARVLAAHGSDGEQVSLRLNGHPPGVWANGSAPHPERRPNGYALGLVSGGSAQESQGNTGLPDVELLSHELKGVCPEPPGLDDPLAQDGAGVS

[4] = target: Cytochrome P450 3A4 (Homo sapiens, UniProt P08684); assay: Inhibition of CYP3A4 (unknown origin) expressed in insect cell microsomes using dibenzylfluorescein substrate by fluorescence based assay; assay type: ADME
Chain of Cytochrome P450 3A4 (P08684 whole entry): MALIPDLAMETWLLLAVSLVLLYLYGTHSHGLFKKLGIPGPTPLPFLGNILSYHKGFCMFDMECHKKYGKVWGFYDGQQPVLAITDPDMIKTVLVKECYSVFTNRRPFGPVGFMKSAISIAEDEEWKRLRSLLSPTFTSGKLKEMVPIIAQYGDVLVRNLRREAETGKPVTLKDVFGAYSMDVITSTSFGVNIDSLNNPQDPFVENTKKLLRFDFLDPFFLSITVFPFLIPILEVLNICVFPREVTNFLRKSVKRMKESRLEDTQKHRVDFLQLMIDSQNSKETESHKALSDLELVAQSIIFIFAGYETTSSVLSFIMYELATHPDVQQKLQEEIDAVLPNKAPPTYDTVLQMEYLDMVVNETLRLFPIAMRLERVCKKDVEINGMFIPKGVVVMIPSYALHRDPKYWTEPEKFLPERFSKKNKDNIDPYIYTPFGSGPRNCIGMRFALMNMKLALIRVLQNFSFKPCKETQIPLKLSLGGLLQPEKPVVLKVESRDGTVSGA

[5] = target: T4, CYP2D6 (Homo sapiens, UniProt P10635); assay: Inhibition of CYP2D6 (unknown origin) expressed in insect cell microsomes at 10 uM using dibenzylfluorescein substrate by fluorescence based assay relative to control; assay type: ADME; conditions: insect cell microsomes expressing CYP2D6, probe dibenzylfluorescein
T4 sequence (P10635 whole entry): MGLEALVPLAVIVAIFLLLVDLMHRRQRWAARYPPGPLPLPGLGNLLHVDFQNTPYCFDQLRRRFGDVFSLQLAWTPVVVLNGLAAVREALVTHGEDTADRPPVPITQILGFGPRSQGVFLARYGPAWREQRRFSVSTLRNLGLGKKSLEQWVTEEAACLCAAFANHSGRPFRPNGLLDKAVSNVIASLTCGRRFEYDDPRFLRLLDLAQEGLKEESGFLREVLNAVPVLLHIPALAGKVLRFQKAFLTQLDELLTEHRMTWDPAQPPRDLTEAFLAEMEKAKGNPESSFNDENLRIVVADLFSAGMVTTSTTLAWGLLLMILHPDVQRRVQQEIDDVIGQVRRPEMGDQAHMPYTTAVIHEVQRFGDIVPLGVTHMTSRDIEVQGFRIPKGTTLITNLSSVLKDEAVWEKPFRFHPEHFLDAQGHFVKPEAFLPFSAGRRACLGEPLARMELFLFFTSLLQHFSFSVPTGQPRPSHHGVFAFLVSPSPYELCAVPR

[6] = target: T4, CYP2D6; assay: Inhibition of CYP2D6 (unknown origin) expressed in insect cell microsomes at 1 uM using dibenzylfluorescein substrate by fluorescence based assay relative to control; assay type: ADME; conditions: insect cell microsomes expressing CYP2D6, probe dibenzylfluorescein
[7] = target: T5, Adenosine receptor A2b (Homo sapiens, UniProt P29275); assay: Displacement [3H]DPCPX from human adenosine A2B receptor expressed in HEK293 cell membranes incubated for 60 mins by scintillation counting method
T5 sequence (P29275 whole entry): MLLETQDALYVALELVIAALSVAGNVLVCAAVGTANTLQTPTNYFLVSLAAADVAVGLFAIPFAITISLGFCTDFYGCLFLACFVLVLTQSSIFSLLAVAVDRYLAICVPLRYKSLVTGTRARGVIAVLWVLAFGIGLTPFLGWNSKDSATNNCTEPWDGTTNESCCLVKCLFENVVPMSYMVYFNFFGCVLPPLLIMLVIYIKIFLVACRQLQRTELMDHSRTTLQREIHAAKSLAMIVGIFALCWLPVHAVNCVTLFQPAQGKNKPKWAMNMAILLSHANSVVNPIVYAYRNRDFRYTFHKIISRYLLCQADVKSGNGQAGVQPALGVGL

[8] = target: T3, Adenosine receptor A2a; assay: Displacement [3H]ZM241385 from adenosine A2A receptor in human HeLa cell membranes incubated for 30 mins by scintillation counting method
[9] = target: T6, Adenosine receptor A1 (Homo sapiens, UniProt P30542); assay: Displacement [3H]DPCPX from human adenosine A1 receptor expressed in CHO cell membranes incubated for 60 mins by scintillation counting method
T6 sequence (P30542 whole entry): T1 sequence (whole entry)

Row | SMILES | inhibition [1] | inhibition [2] | inhibition [3] | pIC50 [4] | inhibition at 10 µM [5] | inhibition at 1 µM [6] | pKi [7] | pKi [8] | pKi [9]
1 | CC1=C(C(=O)OC(C)C)Cn2c(nc3ccccc32)N1 | 31% | 13% | 4% | – | – | – | – | – | –
2 | CCOC(=O)C1=C(C)Nc2nc3ccccc3n2C1 | 34% | 9% | 11% | – | – | – | – | – | –
3 | CC1=C(C(=O)OC(C)C)C(c2ccoc2)n2c(nc3ccccc32)N1 (racemic) | – | – | 22% | 5.57 | 31% | 8% | – | – | –
4 | CC1=C(C(=O)OC(C)C)C(c2ccco2)n2c(nc3ccccc32)N1 (racemic) | – | – | 25% | 5.54 | 35% | 5% | – | – | –
5 | CC1=C(C(=O)OC(C)C)C(c2ncco2)n2c(nc3ccccc32)N1 (racemic) | 1% | 10% | – | – | – | – | 6.15 | 9.00 | –
6 | CC1=C(C(=O)OC(C)C)C(c2cnco2)n2c(nc3ccccc32)N1 (racemic) | – | 39% | 38% | – | – | – | – | – | 6.52
7 | CCOC(=O)C1=C(C)Nc2nc3ccccc3n2C1c1nccs1 (racemic) | 3% | 1% | – | – | – | – | 6.41 | 8.52 | –
8 | CC1=C(C(=O)OC(C)C)C(c2ccc[nH]2)n2c(nc3ccccc32)N1 (racemic) | 38% | 1% | 19% | – | – | – | 7.50 | – | –
9 | CC1=C(C(=O)OC(C)C)C(c2cncs2)n2c(nc3ccccc32)N1 (racemic) | 2% | 5% | 3% | – | – | – | 7.17 | – | –
10 | CC1=C(C(=O)OC(C)C)C(c2cc[nH]n2)n2c(nc3ccccc32)N1 (racemic) | 1% | 2% | 7% | – | – | – | 5.96 | – | –
11 | CC1=C(C(=O)OC(C)C)C(c2ccns2)n2c(nc3ccccc32)N1 (racemic) | 24% | 4% | 18% | – | – | – | 6.76 | – | –
12 | CCOC(=O)C1=C(C)Nc2nc3ccccc3n2C1c1cc[nH]n1 (racemic) | 8% | 1% | 11% | – | – | – | 6.15 | – | –
13 | CCOC(=O)C1=C(C)Nc2nc3ccccc3n2C1c1cncs1 (racemic) | 32% | 1% | 1% | – | – | – | 6.67 | – | –
14 | CCOC(=O)C1=C(C)Nc2nc3ccccc3n2C1c1cnoc1 (racemic) | 21% | 13% | 30% | 5.31 | 37% | 6% | 7.63 | – | –
15 | CCOC(=O)C1=C(C)Nc2nc3ccccc3n2C1c1ccno1 (racemic) | 1% | 11% | 1% | – | – | – | 6.15 | – | –
16 | CCOC(=O)C1=C(C)Nc2nc3ccccc3n2C1c1ccc[nH]1 (racemic) | 45% | 9% | 2% | – | – | – | 7.30 | – | –
17 | CC1=C(C(=O)OC(C)C)C(c2ccno2)n2c(nc3ccccc32)N1 (racemic) | 37% | 1% | 7% | – | – | – | 5.99 | – | –
18 | CCOC(=O)C1=C(C)Nc2nc3ccccc3n2C1c1ccns1 (racemic) | – | 8% | 7% | – | – | – | 7.01 | – | 7.69
19 | CC1=C(C(=O)OC(C)C)C(c2cnsc2)n2c(nc3ccccc32)N1 (racemic) | 9% | 14% | 11% | – | – | – | 6.56 | – | –
20 | CCOC(=O)C1=C(C)Nc2nc3ccccc3n2C1c1cc[nH]c1 (racemic) | 26% | 1% | 7% | – | – | – | 6.35 | – | –
